The values below come from patent US20230349907A1, “BIOPROBES FOR LYSYL OXIDASES AND USES THEREOF” (Pharmaxis Ltd., priority 2020, published 2023).

Structures are written as SMILES. Structures can show the parent of a compound that is named as a salt.

One experiment addresses Bovine LOX (Bos taurus (Bovine), UniProt P33072). As to the kind of experiment: LOX inhibition, peroxidase-coupled Amplex Red assay. It is filed as biochemical. The settings on record: 30 min preincubation at 37° C. The source says: (§1) Method to Determine the Ability of Compounds of the Invention to Inhibit LOX and LOXL1-4 from Different Sources […] S., Trackman P. C. and Kagan H. M., Reaction of aortic lysyl oxidase with beta-aminoproprionitrile. J Biol Chem 1983; 258: 4331-4338). There are five LOX family members; these are LOX, LOXL1, LOXL2, LOXL3 and LOXL4. LOX and LOXL family members can be acquired as recombinant active proteins from commercial sources, or extracted from animal tissues like bovine aorta, tendons, pig skin; or prepared from cell cultures. The inhibitory effects of the compounds of the present invention were tested against the given LOX-LOXL preparation using a high-throughput coupled colorimetric method (Holt A. and Palcic M., A peroxidase-coupled continuous absorbance plate-reader assay for flavin monoamine oxidases, copper-containing amine oxidases and related enzymes. Nat. Protoc. 2006; 1: 2498-2505). The assay was developed using either 384 or 96 well format. […] Test compounds were dissolved in DMSO and tested in a Concentration Response Curve (CRC) with 11 data points, typically in the micromolar or nanomolar range after incubation with the enzyme for 30 min at 37° C. 25 μL of a reaction mixture containing twice the KM concentration of putrescine (Sigma Aldrich, e.g. 20 mM for LOX, or 10 mM for LOXL2 and LOXL3), 120 μM Amplex Red (Sigma Aldrich) and 1.5 U/mL horseradish peroxidase (Sigma Aldrich) prepared in 1.2 M urea, 50 mM sodium borate buffer (pH 8.2) were then added to the corresponding wells. The above volumes were doubled in the case of 96 well plates. The fluorescence (RFU) was read every 2.5 m n for 30 m u […], excitation 565 nm and emission 590 nm (Optima; BMG labtech). The slope of the kinetics for each well was calculated using MARS data analysis software (BMG labtech) and this value was used to deduce the IC50 value (Dotmatics).

Experiment [1] concerns the target T1, rhLOXL2 (Homo sapiens (Human), UniProt Q9Y4K0). As to the kind of experiment: LOXL2 inhibition, peroxidase-coupled Amplex Red assay. It is filed as biochemical. The settings on record: 30 min preincubation at 37° C.
Excerpt: as §1

The target in experiment [2] is T1, rhLOXL2. As to the kind of experiment: antibody/bioprobe ELISA assay detecting rhLOXL2. It is filed as binding. As to the method: Antibody A (AF2639) was conjugated to beads, bound to high protein binding plates (microlon 600, high binding, flat bottom, Greiner 655061 using coating buffer containing 71.5 mM NaHCO3 and 28.5 mM Na2CO3) overnight at 4° C. After washing with a mild detergent (0.05% Tween 20) to remove excess and unbound antibody, the beads or plates were then incubated with blocking solution (1-5% BSA/TBS) to block any free binding spots, for 1 hour at room temperature. The blocking solution was then removed and rhLOXL2 was added and incubated for 3 hours at 4° C. After washing (with a mild detergent) to remove excess/unbound protein, bioprobe Compound 1-1 (which is conjugated with biotin) was incubated for 2 hours at 37° C. at a concentration between IC50 to IC100 of the rhLOXL2 (as measured in a standard biochemical assay eg Amplex Red/Resorufin). After a washing step (with a mild detergent) streptavidin conjugated to horseradish peroxidase or an appropriate label was added and incubation was continued for 1 hour at room temperature. After an additional washing step (with mild TBS/tween detergent), a detection substrate (resorufin or TMB) was added followed by the fluorescence read at Excitation: 565 nm/Emmission: 590 nm or maximum absorbance at 450 nm. A suitable capture antibody will allow for bioprobe binding whilst providing a large signal.
FIG. 3 depicts the absorbance values (optical density 450 nm) from the antibody/bioprobe assay, using one antibody and Compound 1-1 (FIG. 3A) AF2639 was used as the capture antibody, rhLOXL2 was used as the antigen and 80 nM of Compound 1-1 was used as the detection. FIG. 3B) Fitzgerald 70R-12876 was used as the capture antibody, rhLOXL2 is used as the antigen and 80 nM of Compound 1-1 is used as the detection.
When the bioprobe contains two biotin moieties, the signal is more robust than a single biotin counterpart. […] AF2639 was used as the capture, rhLOXL2 was used as the antigen and 78 nM of Compound 1-12 was used for detection.
In general terms: ELISA stands for enzyme-linked immunosorbent assay.

Experiment [3] concerns the target T1, rhLOXL2. The experiment in a line: sandwich ELISA with bioprobe pre-incubated with rhLOXL2. It is filed as binding. As to conditions: 400 nM bioprobe pre-incubated, 1250 ng/mL rhLOXL2, AF2639 capture, antibody C (C-AB179810) detection, FIG. 5. As for the experimental part: A further aim was directed at determining whether the presence of bioprobe (Compound 1-1), pre-incubated and bound to the active site of rhLOXL2, would affect antibody binding and detection by sandwich ELISA. […] FIG. 5 depicts the absorbance values (optical density 460 nm) from the antibody/antibody assay, using two antibodies. Antibody A (AF2639) was used as the capture antibody, 1250 ng/mL rhLOXL2 was used as the antigen and antibody C (C-AB179810) was used as the detection antibody. 400 nM of Compound 1-1 was pre-incubated with rhLOXL2 before commencement of the ELISA assay.

Another experiment concerns the target Human LOXL4 (Homo sapiens (Human), UniProt Q96JB6). As to the kind of experiment: LOXL4 inhibition, peroxidase-coupled Amplex Red assay. It is filed as biochemical. As to conditions: 30 min preincubation at 37° C. The source says:
(§2) Method to Determine the Ability of Compounds of the Invention to Inhibit LOX and LOXL1-4 from Different Sources […] S., Trackman P. C. and Kagan H. M., Reaction of aortic lysyl oxidase with beta-aminoproprionitrile. J Biol Chem 1983; 258: 4331-4338). There are five LOX family members; these are LOX, LOXL1, LOXL2, LOXL3 and LOXL4. LOX and LOXL family members can be acquired as recombinant active proteins from commercial sources, or extracted from animal tissues like bovine aorta, tendons, pig skin; or prepared from cell cultures. The inhibitory effects of the compounds of the present invention were tested against the given LOX-LOXL preparation using a high-throughput coupled colorimetric method (Holt A. and Palcic M., A peroxidase-coupled continuous absorbance plate-reader assay for flavin monoamine oxidases, copper-containing amine oxidases and related enzymes. Nat. Protoc. 2006; 1: 2498-2505). The assay was developed using either 384 or 96 well format. […] The fluorescence (RFU) was read every 2.5 m n for 30 m u at a range of temperatures from 37° C. to 45° C., excitation 565 nm and emission 590 nm (Optima; BMG labtech). The slope of the kinetics for each well was calculated using MARS data analysis software (BMG labtech) and this value was used to deduce the IC50 value (Dotmatics).

In a further experiment the target is Human LOXL1 (Homo sapiens (Human), UniProt Q08397). As to the kind of experiment: LOXL1 inhibition, peroxidase-coupled Amplex Red assay. It is filed as biochemical. As to conditions: 30 min preincubation at 37° C.
Human LOXL1, sequence (Q08397 96-574): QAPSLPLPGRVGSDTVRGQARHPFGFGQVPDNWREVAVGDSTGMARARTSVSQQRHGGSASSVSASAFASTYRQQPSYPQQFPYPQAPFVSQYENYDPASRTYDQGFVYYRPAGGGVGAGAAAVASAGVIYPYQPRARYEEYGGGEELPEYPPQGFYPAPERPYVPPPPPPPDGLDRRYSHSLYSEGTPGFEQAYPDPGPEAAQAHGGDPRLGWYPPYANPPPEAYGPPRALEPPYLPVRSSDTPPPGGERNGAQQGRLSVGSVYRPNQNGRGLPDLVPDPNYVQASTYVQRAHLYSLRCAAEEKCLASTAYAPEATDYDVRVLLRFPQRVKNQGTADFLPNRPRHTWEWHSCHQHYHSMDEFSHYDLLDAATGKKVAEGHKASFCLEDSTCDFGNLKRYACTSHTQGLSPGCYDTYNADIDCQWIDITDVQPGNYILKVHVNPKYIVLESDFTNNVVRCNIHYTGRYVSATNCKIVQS
Excerpt: as §2

The target of the next experiment is Human LOXL3 (Homo sapiens (Human), UniProt P58215). The experiment in a line: LOXL3 inhibition, peroxidase-coupled Amplex Red assay. It is filed as biochemical. As to conditions: 30 min preincubation at 37° C.
Human LOXL3, sequence (P58215 26-753): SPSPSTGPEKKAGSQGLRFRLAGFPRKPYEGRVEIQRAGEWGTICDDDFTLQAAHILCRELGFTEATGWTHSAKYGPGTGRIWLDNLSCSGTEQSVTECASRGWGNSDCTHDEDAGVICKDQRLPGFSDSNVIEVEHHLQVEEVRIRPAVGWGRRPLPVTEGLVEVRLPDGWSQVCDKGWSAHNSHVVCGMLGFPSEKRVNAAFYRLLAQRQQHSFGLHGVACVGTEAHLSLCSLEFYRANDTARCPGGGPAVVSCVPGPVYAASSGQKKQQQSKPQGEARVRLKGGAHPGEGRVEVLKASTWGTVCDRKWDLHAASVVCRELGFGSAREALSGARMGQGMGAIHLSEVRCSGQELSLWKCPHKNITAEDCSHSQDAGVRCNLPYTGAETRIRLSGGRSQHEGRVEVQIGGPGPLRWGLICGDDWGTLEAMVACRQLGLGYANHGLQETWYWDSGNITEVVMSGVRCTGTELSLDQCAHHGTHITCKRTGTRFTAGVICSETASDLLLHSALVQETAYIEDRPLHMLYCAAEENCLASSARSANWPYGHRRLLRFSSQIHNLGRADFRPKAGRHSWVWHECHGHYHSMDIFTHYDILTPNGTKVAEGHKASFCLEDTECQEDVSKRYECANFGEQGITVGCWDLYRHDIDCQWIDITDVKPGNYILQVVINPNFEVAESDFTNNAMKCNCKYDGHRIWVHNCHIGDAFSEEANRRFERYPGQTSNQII
Excerpt: as §2

T1 sequence (Q9Y4K0 26-774): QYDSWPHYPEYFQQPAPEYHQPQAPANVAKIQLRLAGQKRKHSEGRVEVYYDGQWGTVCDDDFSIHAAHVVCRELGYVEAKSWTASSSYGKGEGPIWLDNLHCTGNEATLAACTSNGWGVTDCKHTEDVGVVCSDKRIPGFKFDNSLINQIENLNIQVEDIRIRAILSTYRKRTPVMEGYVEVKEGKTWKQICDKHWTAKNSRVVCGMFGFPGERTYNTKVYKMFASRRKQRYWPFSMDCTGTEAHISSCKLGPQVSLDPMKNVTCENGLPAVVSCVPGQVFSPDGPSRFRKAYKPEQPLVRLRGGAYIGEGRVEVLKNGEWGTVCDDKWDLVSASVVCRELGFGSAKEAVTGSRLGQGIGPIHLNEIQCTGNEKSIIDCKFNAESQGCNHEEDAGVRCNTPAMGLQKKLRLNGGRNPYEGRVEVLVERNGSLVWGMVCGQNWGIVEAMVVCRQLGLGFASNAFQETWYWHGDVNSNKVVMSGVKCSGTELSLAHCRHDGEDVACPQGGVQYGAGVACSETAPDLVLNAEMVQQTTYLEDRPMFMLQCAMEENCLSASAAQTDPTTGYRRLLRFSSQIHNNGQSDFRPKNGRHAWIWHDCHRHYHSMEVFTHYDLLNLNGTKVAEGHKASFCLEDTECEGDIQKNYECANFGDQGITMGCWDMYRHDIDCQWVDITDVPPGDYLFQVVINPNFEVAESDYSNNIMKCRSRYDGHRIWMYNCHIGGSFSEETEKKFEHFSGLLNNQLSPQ
Bovine LOX, sequence (P33072 170-418): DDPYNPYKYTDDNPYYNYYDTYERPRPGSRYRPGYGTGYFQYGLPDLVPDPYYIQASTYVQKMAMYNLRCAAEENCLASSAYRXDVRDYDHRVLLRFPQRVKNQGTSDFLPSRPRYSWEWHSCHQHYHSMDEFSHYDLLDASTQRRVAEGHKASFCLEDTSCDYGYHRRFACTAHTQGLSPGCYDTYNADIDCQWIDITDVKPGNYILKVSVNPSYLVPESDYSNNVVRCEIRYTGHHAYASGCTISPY
Human LOXL4, sequence (Q96JB6 25-756): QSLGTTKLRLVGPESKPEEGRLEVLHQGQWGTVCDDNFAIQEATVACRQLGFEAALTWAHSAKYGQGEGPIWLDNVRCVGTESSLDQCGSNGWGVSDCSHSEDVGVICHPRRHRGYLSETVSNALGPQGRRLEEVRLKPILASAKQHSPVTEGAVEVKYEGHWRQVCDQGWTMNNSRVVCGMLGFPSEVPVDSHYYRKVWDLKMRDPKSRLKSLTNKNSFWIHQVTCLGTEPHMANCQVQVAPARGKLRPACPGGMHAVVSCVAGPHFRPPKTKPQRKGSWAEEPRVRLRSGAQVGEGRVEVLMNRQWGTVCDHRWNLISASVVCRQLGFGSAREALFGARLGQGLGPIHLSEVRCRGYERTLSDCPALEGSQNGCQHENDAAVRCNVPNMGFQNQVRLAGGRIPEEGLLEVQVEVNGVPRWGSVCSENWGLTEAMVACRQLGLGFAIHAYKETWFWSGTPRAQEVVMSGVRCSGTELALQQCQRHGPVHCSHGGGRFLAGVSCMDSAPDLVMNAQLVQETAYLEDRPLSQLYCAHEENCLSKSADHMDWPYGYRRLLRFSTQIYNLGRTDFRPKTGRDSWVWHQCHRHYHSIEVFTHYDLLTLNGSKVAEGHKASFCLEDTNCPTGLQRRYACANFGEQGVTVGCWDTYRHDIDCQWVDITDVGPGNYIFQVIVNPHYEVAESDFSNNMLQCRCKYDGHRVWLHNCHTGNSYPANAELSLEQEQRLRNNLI

In the case of `Cc1c(Cc2ccc(S(=O)(=O)N(C)C)cc2)c2cc(C(=O)N3CCN(C(=O)CCCC[C@@H]4SC[C@@H]5NC(=O)N[C@@H]54)CC3)ccc2n1C/C(F)=C/CN` [Compound 1-1, 4-((1-((Z)-4-amino-2-fluorobut-2-en-1-yl)-2-methyl-5-(4-(5-((3aS,4S,6aR)-2-oxohexahydro-1H-thieno[3,4-d]imidazol-4-yl)pentanoyl)piperazine-1-carbonyl)-1H-indol-3-yl)methyl)-N,N-dimethylbenzenesulfonamide hydrochloride], the IC50 (as a rule, the concentration at which inhibition is half-maximal) is above 300 nM at Bovine LOX and below 300 nM against rhLOXL2 [1]. Also, the “rhLOXL2 signal by bioprobe detection (optical density 450 nm)” value on rhLOXL2 [2] (Antibody A (AF2639) as capture antibody, 80 nM bioprobe, FIG. 3A) is recorded as “shows a specific rhLOXL2 signal”. Moreover, the “rhLOXL2 detection by bioprobe (optical density 450 nm)” value on rhLOXL2 [2] (Antibody B (Fitzgerald 70R-12876) as capture antibody, 80 nM bioprobe, FIG. 3B) is given as “prevents the detection of rhLOXL2”. In addition, at rhLOXL2 [3], the “rhLOXL2 detection levels in the presence or absence of bioprobe” value was “no difference in rhLOXL2 detection levels”.
Regarding `NC/C=C(\F)CS(=O)(=O)c1cccc(Cn2cc(-c3cc(OCCCc4cn(CCCCC[C@@H]5SC[C@@H]6NC(=O)N[C@@H]65)nn4)cc(OCCCc4cn(CCCCC[C@@H]5SC[C@@H]6NC(=O)N[C@@H]65)nn4)c3)nn2)c1` [Compound 1-12, (3aS,3a'S,4S,4'S,6aR,6a′R)-4,4′-(((((5-(1-(3-(((Z)-4-amino-2-fluorobut-2-en-1-yl)sulfonyl)benzil)-1H-1,2,3-triazol-4-yl)-1,3-phenylene)bis(oxy))bis(propane-3,1-diyl))bis(1H-1,2,3-triazole-4,1-diyl))bis(pentane-5,1-diyl))bis(tetrahydro-1H-thieno[3,4-d]imidazol-2(3H)-one) hydrochloride], the IC50 at Bovine LOX is above 300 nM; against rhLOXL2 [1], below 300 nM; at Human LOXL4, below 300 nM; at Human LOXL1 it was above 300 nM; against Human LOXL3, above 300 nM. The “signal of bioprobe with two biotin moieties versus single biotin counterpart (optical density 460 nm)” value at rhLOXL2 [2] (AF2639 capture, 78 nM bioprobe, FIG. 4) is given as “more robust”.
